Patent US10485235B2, “Aryloxypyrimidinyl ethers as herbicides” (FMC Corporation, priority 2015, dated 2019)

What was measured:
Assay type in all cases: in vivo
corn (Zea mays) = experiment: Test A postemergence, corn; conditions: Zea mays, post-emergence, 240 h, postemergence, 0 to 100 scale, 0 is no effect, 100 is complete control, approximately 10 days; for Corn plant response rating (crop injury, 0 = no effect, 100 = complete kill) at 125 g/ha: 125 g ai/ha; for Corn plant response rating (crop injury, 0 = no effect, 100 = complete kill) at 31 g/ha: 31 g ai/ha
Method in brief: (§1)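 Visual injury rating versus untreated controls on a 0 to 100 scale (0 = no effect, 100 = complete control), taken about 10 days after treatment in the greenhouse. Preemergence: directed soil spray over seeded loam–sand. Postemergence: spray on one- to two-leaf plants, 2 to 10 cm tall.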

[1] = test system: ragweed (common ragweed, Ambrosia elatior); experiment: Test A preemergence, ragweed; conditions: Ambrosia artemisiifolia, pre-emergence, 240 h, Preemergence, 0 to 100 scale (0 no effect, 100 complete control), read-out: Plant response rating, Ragweed; for pest or weed control at 125 g/ha: 125 g ai/ha; for pest or weed control at 31 g/ha: 31 g ai/ha
Method in brief: as §1

[2] = test system: foxtail, giant (giant foxtail, Setaria faberii); experiment: Test A preemergence, giant foxtail; conditions: Setaria faberi, pre-emergence, 240 h, Preemergence, 0 to 100 scale (0 no effect, 100 complete control), read-out: Plant response rating, Foxtail, Giant; for pest or weed control at 125 g/ha: 125 g ai/ha; for pest or weed control at 31 g/ha: 31 g ai/ha
Method in brief: as §1

[3] = test system: barnyardgrass (Echinochloa crus-galli); experiment: Test A preemergence, barnyardgrass; conditions: Echinochloa crus-galli, pre-emergence, 240 h, Preemergence, 0 to 100 scale (0 no effect, 100 complete control), read-out: Plant response rating, Barnyardgrass; for pest or weed control at 125 g/ha: 125 g ai/ha; for pest or weed control at 31 g/ha: 31 g ai/ha
Method in brief: as §1

[4] = test system: ragweed (common ragweed, Ambrosia elatior); experiment: Test A postemergence, ragweed; conditions: Ambrosia artemisiifolia, post-emergence, 240 h, postemergence, 0 to 100 scale, 0 is no effect, 100 is complete control, approximately 10 days, read-out: Plant response rating, Ragweed; for pest or weed control at 125 g/ha: 125 g ai/ha; for pest or weed control at 31 g/ha: 31 g ai/ha
Method in brief: as §1

[5] = test system: ryegrass, Italian (Italian ryegrass, Lolium multiflorum); experiment: Test A postemergence, Italian ryegrass; conditions: Lolium multiflorum, post-emergence, 240 h, postemergence, 0 to 100 scale, 0 is no effect, 100 is complete control, approximately 10 days, read-out: Plant response rating, Ryegrass, Italian; for pest or weed control at 125 g/ha: 125 g ai/ha; for pest or weed control at 31 g/ha: 31 g ai/ha
Method in brief: as §1

[6] = test system: galium (catchweed bedstraw, Galium aparine); experiment: Test A postemergence, galium; conditions: Galium, post-emergence, 240 h, postemergence, 0 to 100 scale, 0 is no effect, 100 is complete control, approximately 10 days, read-out: Plant response rating, Galium; for pest or weed control at 125 g/ha: 125 g ai/ha; for pest or weed control at 31 g/ha: 31 g ai/ha
Method in brief: as §1

[7] = test system: ducksalad (Heteranthera limosa); experiment: Test B flooded paddy test, ducksalad; conditions: Heteranthera limosa; 250 g ai/ha, Flood; visual rating after 13 to 15 days; scale 0 to 100, 0 is no effect, 100 is complete control; read-out: Plant response rating, Ducksalad
Method in brief: (§2)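 2-leaf plants; flood to 3 cm, dose into water, hold depth; greenhouse 13–15 d; visual score 0–100 vs controls; dash = not tested.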

[8] = test system: pigweed (Amaranthus retroflexus); experiment: Test A preemergence, pigweed; conditions: Amaranthus retroflexus, pre-emergence, 240 h, Preemergence, 0 to 100 scale (0 no effect, 100 complete control), read-out: Plant response rating, Pigweed; for pest or weed control at 125 g/ha: 125 g ai/ha; for pest or weed control at 31 g/ha: 31 g ai/ha
Method in brief: as §1

kochia (Kochia scoparia) = experiment: Test A preemergence, kochia; conditions: Bassia scoparia, pre-emergence, 240 h, Preemergence, 0 to 100 scale (0 no effect, 100 complete control), read-out: Plant response rating, Kochia; for pest or weed control at 125 g/ha: 125 g ai/ha; for pest or weed control at 31 g/ha: 31 g ai/ha
Method in brief: as §1

[9] = test system: sedge, umbrella (small-flower umbrella sedge, Cyperus difformis); experiment: Test B flooded paddy test, umbrella sedge; conditions: Cyperus difformis; 250 g ai/ha, Flood; visual rating after 13 to 15 days; scale 0 to 100, 0 is no effect, 100 is complete control; read-out: Plant response rating, Sedge, Umbrella
Method in brief: as §2

[10] = test system: blackgrass (Alopecurus myosuroides); experiment: Test A postemergence, blackgrass; conditions: Alopecurus myosuroides, post-emergence, 240 h, postemergence, 0 to 100 scale, 0 is no effect, 100 is complete control, approximately 10 days, read-out: Plant response rating, Blackgrass; for pest or weed control at 125 g/ha: 125 g ai/ha; for pest or weed control at 31 g/ha: 31 g ai/ha
Method in brief: as §1

[11] = test system: barnyardgrass (Echinochloa crus-galli); experiment: Test B flooded paddy test, barnyardgrass; conditions: Echinochloa crus-galli; 250 g ai/ha, Flood; visual rating after 13 to 15 days; scale 0 to 100, 0 is no effect, 100 is complete control; read-out: Plant response rating, Barnyardgrass
Method in brief: as §2

[12] = test system: ryegrass, Italian (Italian ryegrass, Lolium multiflorum); experiment: Test A preemergence, Italian ryegrass; conditions: Lolium multiflorum, pre-emergence, 240 h, Preemergence, 0 to 100 scale (0 no effect, 100 complete control), read-out: Plant response rating, Ryegrass, Italian; for pest or weed control at 125 g/ha: 125 g ai/ha; for pest or weed control at 31 g/ha: 31 g ai/ha
Method in brief: as §1

[13] = test system: wheat (Triticum aestivum); experiment: Test A postemergence, wheat; conditions: Triticum aestivum, post-emergence, 240 h, postemergence, 0 to 100 scale, 0 is no effect, 100 is complete control, approximately 10 days, read-out: Plant response rating, Wheat; for plant injury at 125 g/ha: 125 g ai/ha; for plant injury at 31 g/ha: 31 g ai/ha
Method in brief: as §1

## FC(F)C(F)(F)COc1c(Br)cccc1Oc1ncc(Cl)cn1 [Compound 18, 2-[3-bromo-2-(2,2,3,3-tetrafluoropropoxy)phenoxy]-5-chloropyrimidine]
Corn (Zea mays)
  Corn plant response rating (crop injury, 0 = no effect, 100 = complete kill) at 125 g/ha: 20%
Corn (Zea mays); 500 g ai/ha
  Corn plant response rating (crop injury, 0 = no effect, 100 = complete kill) at 500 g/ha: 30%
[1]
  pest or weed control at 125 g/ha: 0%
[1]; 500 g ai/ha
  pest or weed control at 500 g/ha: 10%
[2]
  pest or weed control at 125 g/ha: 100%
[2]; 500 g ai/ha
  pest or weed control at 500 g/ha: 100%
[3]
  pest or weed control at 125 g/ha: 100%
[3]; 500 g ai/ha
  pest or weed control at 500 g/ha: 100%
[4]
  pest or weed control at 125 g/ha: 0%
[4]; 500 g ai/ha
  pest or weed control at 500 g/ha: 20%
[5]
  pest or weed control at 125 g/ha: 0%
[5]; 500 g ai/ha
  pest or weed control at 500 g/ha: 60%
[6]
  pest or weed control at 125 g/ha: 80%
[6]; 500 g ai/ha
  pest or weed control at 500 g/ha: 100%
[7]
  pest or weed control at 250 g/ha: 30%
[8]
  pest or weed control at 125 g/ha: 100%
[8]; 500 g ai/ha
  pest or weed control at 500 g/ha: 100%
Kochia (Kochia scoparia)
  pest or weed control at 125 g/ha: 30%
Kochia (Kochia scoparia); 500 g ai/ha
  pest or weed control at 500 g/ha: 100%
[9]
  pest or weed control at 250 g/ha: 0%
[10]
  pest or weed control at 125 g/ha: 20%
[10]; 500 g ai/ha
  pest or weed control at 500 g/ha: 80%
[11]
  pest or weed control at 250 g/ha: 0%
[12]
  pest or weed control at 125 g/ha: 10%
[12]; 500 g ai/ha
  pest or weed control at 500 g/ha: 100%
[13]
  plant injury at 125 g/ha: 0%
[13]; 500 g ai/ha
  plant injury at 500 g/ha: 20%

## N#Cc1cccc(Oc2ncc(Cl)cn2)c1OC/C=C/C(F)(F)F [Compound 8, 3-[(5-chloro-2-pyrimidinyl)oxy]-2-[[(2E)-4,4,4-trifluoro-2-buten-1-yl]oxy]benzonitrile]
Corn (Zea mays)
  Corn plant response rating (crop injury, 0 = no effect, 100 = complete kill) at 31 g/ha: 10%
  Corn plant response rating (crop injury, 0 = no effect, 100 = complete kill) at 125 g/ha: 20%
[1]
  pest or weed control at 31 g/ha: 0%
  pest or weed control at 125 g/ha: 0%
[2]
  pest or weed control at 31 g/ha: 100%
  pest or weed control at 125 g/ha: 100%
[3]
  pest or weed control at 31 g/ha: 30%
  pest or weed control at 125 g/ha: 100%
[4]
  pest or weed control at 31 g/ha: 0%
  pest or weed control at 125 g/ha: 10%
[5]
  pest or weed control at 31 g/ha: 10%
  pest or weed control at 125 g/ha: 60%
[6]
  pest or weed control at 31 g/ha: 40%
  pest or weed control at 125 g/ha: 90%
[7]
  pest or weed control at 250 g/ha: 75%
[8]
  pest or weed control at 31 g/ha: 100%
  pest or weed control at 125 g/ha: 100%
Kochia (Kochia scoparia)
  pest or weed control at 31 g/ha: 20%
  pest or weed control at 125 g/ha: 100%
[9]
  pest or weed control at 250 g/ha: 100%
[10]
  pest or weed control at 31 g/ha: 20%
  pest or weed control at 125 g/ha: 40%
[11]
  pest or weed control at 250 g/ha: 0%
[12]
  pest or weed control at 31 g/ha: 0%
  pest or weed control at 125 g/ha: 30%
[13]
  plant injury at 31 g/ha: 0%
  plant injury at 125 g/ha: 10%

## Cc1cccc(Oc2ncc(Cl)cn2)c1OCC(F)(F)F [Compound 63]
Corn (Zea mays)
  Corn plant response rating (crop injury, 0 = no effect, 100 = complete kill) at 31 g/ha: 0%
  Corn plant response rating (crop injury, 0 = no effect, 100 = complete kill) at 125 g/ha: 0%
[1]
  pest or weed control at 31 g/ha: 0%
  pest or weed control at 125 g/ha: 0%
[2]
  pest or weed control at 31 g/ha: 0%
  pest or weed control at 125 g/ha: 0%
[3]
  pest or weed control at 31 g/ha: 0%
  pest or weed control at 125 g/ha: 0%
[4]
  pest or weed control at 31 g/ha: 0%
  pest or weed control at 125 g/ha: 0%
[5]
  pest or weed control at 31 g/ha: 0%
  pest or weed control at 125 g/ha: 0%
[6]
  pest or weed control at 31 g/ha: 0%
  pest or weed control at 125 g/ha: 0%
[7]
  pest or weed control at 250 g/ha: 100%
[8]
  pest or weed control at 31 g/ha: 0%
  pest or weed control at 125 g/ha: 0%
Kochia (Kochia scoparia)
  pest or weed control at 31 g/ha: 0%
  pest or weed control at 125 g/ha: 0%
[9]
  pest or weed control at 250 g/ha: 90%
[10]
  pest or weed control at 31 g/ha: 0%
  pest or weed control at 125 g/ha: 0%
[11]
  pest or weed control at 250 g/ha: 0%
[12]
  pest or weed control at 31 g/ha: 0%
  pest or weed control at 125 g/ha: 0%
[13]
  plant injury at 31 g/ha: 0%
  plant injury at 125 g/ha: 0%
